{
  "source": "patent US7973219B2",
  "about": "“Method for producing transgenic plants resistant to weed control compounds which disrupt the porphyrin pathways of plants” (Sumitomo Chemical Company, Limited, priority 1998, dated 2011)",
  "key": {"[1]": {"system": "E. coli BT3/pACYCSP+pRASSL4 strain", "test": "Growth of E. coli BT3/pACYCSP+pRASSL4 with herbicidal compound", "format": "cell-based, Escherichia coli", "details": "1 ppm, 18 hours culture, Table 16", "source_text": "According to the description of Gibson, L. C. D. et al., Proc. Natl. Acad. Sci. USA, 92; p 1941 (1995), the DNA fragment containing bchH gene prepared in Example 1 was digested with the restriction enzymes NdeI and BglII. The resultant DNA fragment was inserted between NdeI restriction site and BamHI restriction site of expression vector pET11a (manufactured by Stratagene) to obtain plasmid pETBCH (FIG. 1). This plasmid pETBCH was introduced into E. coli BL21(DE3) strain competent cells (manufactured by Stratagene) according to the manual attached to the competent cells to obtain E. coli BL21(DE3)/pETBCH strain. […] When the absorbance at 600 nm of the liquid culture medium became about 0.6, isopropyl β-D-thiogalactopyranoside (IPTG) was added to the liquid culture medium so that the final concentration was 0.4 mM, and the culture was continued for about additional 20 hours. […]\nThese E. coli strains were inoculated into YPT medium containing 1 ppm of the PPO inhibitory-type herbicidal compound represented by Structure 8, 100 μg/ml ampicillin, 15 μg/ml chloramphenicol, 10 μg/ml kanamycin, 10 μg/ml hemin and 50 μg/ml aminolevulinic acid, cultured under dark conditions or light conditions according to the same manner as in Example 2. Then, 18 hours after initiation of culture, the absorbance of the liquid culture medium was measured at 600 nm. […]"}, "[2]": {"system": "tobacco into which the gene encoding the variant Chlamydomonas reinhardtii PPO was introduced", "test": "Leaf piece chlorophyll test, tobacco with gene encoding variant Chlamydomonas reinhardtii PPO", "format": "in vivo", "details": "Table 10; for Resistant level to test compound: same manner as Example 6 (0.3 ppm), treated vs untreated leaf pieces; for Total chlorophyll content treated-leaf: same manner as Example 6 (0.3 ppm, 7 days in light)", "source_text": "The tobacco leaves into which bchH gene was introduced and control recombinant tobacco leaves obtained in Example 5 were collected and each leaf was divided into the right and left equivalent pieces along the main vein, respectively. To one piece was applied an aqueous solution containing 0.3 ppm PPO inhibitory-type herbicidal compound of Structure 8, while, to the other piece was not applied the compound. These leaf pieces were placed on MS medium containing 0.8% agar and allowed to stand at room temperature for 7 days in light place. Then, each leaf piece was ground with pestle and mortar in 5 ml of 80% aqueous acetone solution to extract chlorophyll. The extract liquid was diluted with 80% aqueous acetone solution and the absorbance was measured at 750 nm, 663 nm and 645 nm to calculate total chlorophyll content according to the method described by Macknney G., J. Biol. Chem. (1941) 140, p 315. The results obtained from 4 clones of tobacco into which bchH gene was introduced (BCH1 to 4) and control recombinant tobacco is shown in Table 4. In the table, the resistant level to the herbicidal compound was represented by percentages of the total chlorophyll content of leaf pieces treated with herbicidal compound to that of untreated leaf pieces.\nLeaf pieces of tobacco cultured sterilely were infected with the Agrobacterium strain and, according to the same manner as in Example 5, tobacco into which the gene encoding the variant Chlamydomonas reinhardtii PPO was introduced was obtained.\nThe level of resistance to the PPO-inhibitory type herbicidal compound represented by Structure 8 was confirmed quantitatively by testing tobacco into which the gene encoding the variant Chlamydomonas reinhardtii PPO prepared in Example 18 was introduced according to the same manner as in Example 6. The results obtained from 4 clones (CRP 1-4) of tobacco into which the gene encoding the variant Chlamydomonas reinhardtii PPO was introduced and control recombinant tobacco is shown in Table 10. In the table, the resistant levels to the herbicidal compound are represented by percentages of the total chlorophyll content of leaf pieces treated with the herbicidal compound to that of untreated leaf pieces."}},
  "data": [
    {"smiles": "C#CCOc1cc(N2C(=O)C3=C(CCCC3)C2=O)c(F)cc1Cl", "note": "[Structure 8]", "values": [
      {"measurement": "Relative absorbance", "setting": "[1]; in the dark", "value": 0.98},
      {"measurement": "Relative absorbance", "setting": "[1]; in the light", "value": 1.1},
      {"measurement": "Resistant level to test compound", "setting": "[2]; clone CRP-1", "value": 121, "unit": "%"},
      {"measurement": "Total chlorophyll content treated-leaf", "setting": "[2]; clone CRP-1", "value": 1.54, "unit": "mg/g-fresh weight"},
      {"measurement": "Resistant level to test compound", "setting": "[2]; clone CRP-2", "value": 111, "unit": "%"},
      {"measurement": "Total chlorophyll content treated-leaf", "setting": "[2]; clone CRP-2", "value": 1.67, "unit": "mg/g-fresh weight"},
      {"measurement": "Resistant level to test compound", "setting": "[2]; clone CRP-3", "value": 101, "unit": "%"},
      {"measurement": "Total chlorophyll content treated-leaf", "setting": "[2]; clone CRP-3", "value": 1.11, "unit": "mg/g-fresh weight"},
      {"measurement": "Resistant level to test compound", "setting": "[2]; clone CRP-4", "value": 99.4, "unit": "%"}
    ]}
  ]
}
